In one assay the target is T1, ePL-tagged Aiolos (Homo sapiens, UniProt Q96SW2+Q9UKT9).
T1 construct: expressed in transfected cells
Put plainly: ePL-tagged substrate degradation in DF15 multiple myeloma cells. Type of assay: cell-based. The procedure: (§1) DF15 multiple myeloma cells stably expressing ePL-tagged Aiolos, Ikaros, or GSPT1, and MDS-L cells stably expressing ePL-tagged CK1a were generated via lentiviral infection with pLOC-ePL-Aiolos (or Ikaros, GSPT1, or CK1a). […] Compounds were dispensed by an acoustic dispenser (ATS acoustic transfer system from EDC Biosystems) into a 384-well plate in a 10-point dose response curve using 3-fold dilutions starting at 10 μM and going down to […]. Then, 25 μL of media (RPMI-1640+10% heat inactivated FBS+25 mM Hepes+1 mM Na pyruvate+1× NEAA+1×Pen Strep Glutamine) containing 5000 of DF15 or MSD-L cells was dispensed per well. Assay plates were incubated at 37° C. with 5% CO2 for 4 hours except 20 hours for GSPT1. After incubation, 25 μL of the InCELL Hunter detection reagent working solution (DiscoverX, catalogue no. 96-0002, Fremont, Calif.) was added to each well and incubated at room temperature for 60 min protected from light. After 60 min, luminescence was read on an Envision or PHERAstar luminescence reader.
(§2) All substrate degradation curves were processed and evaluated using ActivityBase (IDBS), a data analysis software package. Ymin is minimum percent protein remaining.

Assay [1] has as its system IKZF1 ZNF2_3 Q1F tagged anti-ROR1 CAR. Put plainly: CAR surface levels in primary T cells, flow cytometry. Type of assay: cell-based, human. To be noted: dose titration. As to the method:
The ability to use compounds to titrate primary CAR T effector function by degrading IKZF1 ZNF2_3 Q1F tagged anti-ROR1 CAR (FIG. 13A) was evaluated. The CAR included similar transmembrane, costimulatory, and signaling domains as the CD19 CAR, but with an anti-ROR1 scFv. A lentiviral vector encoding ZNF2_3 Q1F tagged or untagged anti-ROR1 CAR was transduced into activated primary T cells. Transduced cells were expanded for 10 days in media supplemented with IL2, IL7, and IL15, then frozen. Prior to the experiment, cells were thawed and allowed to rest in media with a dose titration of Compound C or without drug. […] To determine the impacts of CAR degradation on CAR T activity, cells were then co-cultured with a Nuclight red labeled H-1975 ROR1 expressing target cell line at a 1:4 effector:target cell ratio. Co-cultures were placed in the Incucyte for 24 hours to monitor tumor killing via Nuclight red signal (FIG. 14A), and supernatants were collected to measure proinflammatory cytokine production by MSD (FIG. 14B-14D; IL-2, TNFα, and IFNγ).
(In general: A flow cytometer gives signals particle by particle.)

The next assay has as its target T2, ePL-tagged GSPT1 (Homo sapiens, UniProt P15170+Q96SW2).
T2 construct: expressed in transfected cells
As to the kind of experiment: ePL-tagged substrate degradation in DF15 multiple myeloma cells. Type of assay: cell-based. The procedure: as §1
(§3) To determine the EC50 value of a compound for the degradation of a given substrate (concentration of compound that achieves half the maximum degradation observed), a four-parameter logistic model (sigmoidal dose—response model) (FIT=(A+{(B−A)/1+[(C/x)D]})) where C is the inflection point (EC50), D is the […], and A and B are the low and high limits of the fit, respectively) was used. All substrate degradation curves were processed and evaluated using ActivityBase (IDBS), a data analysis software package. Ymin is minimum percent protein remaining.

The next assay concerns the target T3, ePL-tagged Ikaros (Homo sapiens, UniProt Q13422+Q96SW2).
T3 construct: expressed in transfected cells
The assay is described as above. Type of assay: cell-based. As to the method: as §1, §3

In the next assay the target is T4, Helios (Homo sapiens, UniProt Q96SW2+Q9UKS7).
T4 construct: endogenous in cells; host or cells: Jurkat/Helios/HiBit cells (CRISPR/Cas9 knock-in)
T4 sequence (Q9UKS7 whole entry): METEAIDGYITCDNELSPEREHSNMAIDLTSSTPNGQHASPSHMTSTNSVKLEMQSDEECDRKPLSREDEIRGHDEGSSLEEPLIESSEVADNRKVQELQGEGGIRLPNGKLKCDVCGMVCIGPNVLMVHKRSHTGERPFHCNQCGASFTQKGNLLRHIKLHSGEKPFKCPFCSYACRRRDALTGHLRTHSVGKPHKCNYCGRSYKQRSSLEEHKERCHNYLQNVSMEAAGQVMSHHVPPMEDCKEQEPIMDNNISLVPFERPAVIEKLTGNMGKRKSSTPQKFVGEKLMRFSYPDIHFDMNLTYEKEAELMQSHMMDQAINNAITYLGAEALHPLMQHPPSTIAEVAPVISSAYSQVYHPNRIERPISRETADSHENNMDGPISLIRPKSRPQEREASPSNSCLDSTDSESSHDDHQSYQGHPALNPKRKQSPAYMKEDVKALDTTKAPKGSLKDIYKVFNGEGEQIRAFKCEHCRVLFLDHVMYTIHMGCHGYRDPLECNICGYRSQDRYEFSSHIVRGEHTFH
T4 sequence (Q96SW2 whole entry): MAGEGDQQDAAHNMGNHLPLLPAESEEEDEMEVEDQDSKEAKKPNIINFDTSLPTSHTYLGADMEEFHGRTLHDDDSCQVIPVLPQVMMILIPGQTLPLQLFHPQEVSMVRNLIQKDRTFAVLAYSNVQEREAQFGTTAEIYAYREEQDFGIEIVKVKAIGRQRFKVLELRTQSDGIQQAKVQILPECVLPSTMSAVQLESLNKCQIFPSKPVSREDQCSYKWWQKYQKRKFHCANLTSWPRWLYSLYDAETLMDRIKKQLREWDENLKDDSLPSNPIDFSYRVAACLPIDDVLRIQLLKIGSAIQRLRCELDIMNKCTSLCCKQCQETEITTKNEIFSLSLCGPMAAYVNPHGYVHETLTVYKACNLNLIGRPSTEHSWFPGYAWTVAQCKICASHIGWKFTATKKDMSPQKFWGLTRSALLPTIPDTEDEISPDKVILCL
T4 sequence (Q16531 whole entry partner): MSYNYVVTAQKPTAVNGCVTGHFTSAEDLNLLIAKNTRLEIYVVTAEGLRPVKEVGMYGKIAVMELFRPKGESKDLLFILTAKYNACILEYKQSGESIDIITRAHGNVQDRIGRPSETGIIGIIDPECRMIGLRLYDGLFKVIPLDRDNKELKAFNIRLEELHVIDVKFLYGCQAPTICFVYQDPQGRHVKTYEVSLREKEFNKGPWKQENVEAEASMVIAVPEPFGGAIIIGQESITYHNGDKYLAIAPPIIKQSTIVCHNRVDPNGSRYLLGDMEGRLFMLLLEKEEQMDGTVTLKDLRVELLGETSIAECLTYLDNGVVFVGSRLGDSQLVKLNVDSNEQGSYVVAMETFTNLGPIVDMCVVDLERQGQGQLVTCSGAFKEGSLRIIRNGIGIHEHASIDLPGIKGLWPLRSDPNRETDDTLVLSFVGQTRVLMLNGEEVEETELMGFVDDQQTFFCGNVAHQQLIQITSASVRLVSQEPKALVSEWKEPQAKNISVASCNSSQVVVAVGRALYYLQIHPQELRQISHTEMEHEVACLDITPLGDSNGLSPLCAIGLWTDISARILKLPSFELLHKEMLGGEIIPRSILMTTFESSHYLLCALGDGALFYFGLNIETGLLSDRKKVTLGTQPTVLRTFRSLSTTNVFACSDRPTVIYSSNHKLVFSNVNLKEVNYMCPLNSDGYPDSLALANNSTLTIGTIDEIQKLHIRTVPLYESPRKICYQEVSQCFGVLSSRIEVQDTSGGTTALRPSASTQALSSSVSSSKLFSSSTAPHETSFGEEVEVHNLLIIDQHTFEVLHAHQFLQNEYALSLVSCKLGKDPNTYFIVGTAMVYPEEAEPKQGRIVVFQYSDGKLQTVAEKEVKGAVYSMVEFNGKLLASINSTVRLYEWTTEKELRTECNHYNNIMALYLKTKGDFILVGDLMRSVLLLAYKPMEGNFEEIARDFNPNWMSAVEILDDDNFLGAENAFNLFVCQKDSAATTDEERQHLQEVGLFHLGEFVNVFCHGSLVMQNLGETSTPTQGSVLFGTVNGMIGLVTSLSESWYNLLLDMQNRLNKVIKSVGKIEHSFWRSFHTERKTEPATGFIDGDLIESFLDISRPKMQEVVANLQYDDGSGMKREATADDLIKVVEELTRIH
Put plainly: Helios HiBit degradation in Jurkat cells. Type of assay: cell-based. The procedure: For Helios, a stable Jurkat cell line was engineered using CRISPR/Cas9 to insert an in-frame HiBit tag into the carboxy-terminal reading frame of the IKZF2 gene. Test compounds were transferred to 1536 well plates using an acoustic dispenser, and Jurkat/Helios/HiBit cells in DMEM/10% FCS were plated at 10,000 cells/well in a final volume of 5 ul. Cells were incubated at 37C, 95% RH for 18 hr. Luciferase activity was measured by adding 2 ul/well of Nano-Glo reagent (Promega), incubating at RT for 30 min, and reading luminescence on a microtiter plate reader.
as §2
On the technique in general: With HiBiT, luminescence reflects the tagged protein that the partner subunit can reach.

Bounds are passed on as bounds.

T1 sequence (Q9UKT9 whole entry): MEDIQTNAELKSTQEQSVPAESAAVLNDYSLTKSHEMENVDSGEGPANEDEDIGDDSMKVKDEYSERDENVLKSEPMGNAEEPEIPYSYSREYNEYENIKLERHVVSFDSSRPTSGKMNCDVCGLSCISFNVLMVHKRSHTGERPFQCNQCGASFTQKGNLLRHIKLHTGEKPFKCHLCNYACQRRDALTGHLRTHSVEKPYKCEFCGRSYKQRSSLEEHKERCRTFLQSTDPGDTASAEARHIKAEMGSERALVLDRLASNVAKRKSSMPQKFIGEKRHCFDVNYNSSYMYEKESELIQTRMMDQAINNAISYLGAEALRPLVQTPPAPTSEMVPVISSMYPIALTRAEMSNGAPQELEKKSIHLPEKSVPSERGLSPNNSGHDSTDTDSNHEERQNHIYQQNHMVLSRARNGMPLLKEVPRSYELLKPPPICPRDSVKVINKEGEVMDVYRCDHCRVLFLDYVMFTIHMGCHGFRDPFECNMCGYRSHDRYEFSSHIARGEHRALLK
T1 sequence (Q96SW2 whole entry): as the sequence (Q96SW2 whole entry) above
T1 sequence (Q16531 whole entry partner): as the sequence (Q16531 whole entry partner) above
T2 sequence (P15170 whole entry): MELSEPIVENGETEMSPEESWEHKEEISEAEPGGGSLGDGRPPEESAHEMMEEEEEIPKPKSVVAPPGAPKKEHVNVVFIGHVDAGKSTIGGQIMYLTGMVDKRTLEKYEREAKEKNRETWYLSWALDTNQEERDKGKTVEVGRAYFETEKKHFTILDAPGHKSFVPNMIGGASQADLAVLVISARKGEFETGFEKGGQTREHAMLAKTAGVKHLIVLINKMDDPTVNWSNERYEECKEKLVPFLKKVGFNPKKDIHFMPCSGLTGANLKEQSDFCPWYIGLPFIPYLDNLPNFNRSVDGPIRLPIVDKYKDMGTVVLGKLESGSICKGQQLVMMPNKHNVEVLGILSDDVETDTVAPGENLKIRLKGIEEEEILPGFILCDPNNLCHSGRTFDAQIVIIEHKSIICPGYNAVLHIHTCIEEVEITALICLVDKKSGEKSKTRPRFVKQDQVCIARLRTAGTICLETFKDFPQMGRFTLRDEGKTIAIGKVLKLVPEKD
T2 sequence (Q96SW2 whole entry): as the sequence (Q96SW2 whole entry) above
T2 sequence (Q16531 whole entry partner): as the sequence (Q16531 whole entry partner) above
T3 sequence (Q13422 whole entry): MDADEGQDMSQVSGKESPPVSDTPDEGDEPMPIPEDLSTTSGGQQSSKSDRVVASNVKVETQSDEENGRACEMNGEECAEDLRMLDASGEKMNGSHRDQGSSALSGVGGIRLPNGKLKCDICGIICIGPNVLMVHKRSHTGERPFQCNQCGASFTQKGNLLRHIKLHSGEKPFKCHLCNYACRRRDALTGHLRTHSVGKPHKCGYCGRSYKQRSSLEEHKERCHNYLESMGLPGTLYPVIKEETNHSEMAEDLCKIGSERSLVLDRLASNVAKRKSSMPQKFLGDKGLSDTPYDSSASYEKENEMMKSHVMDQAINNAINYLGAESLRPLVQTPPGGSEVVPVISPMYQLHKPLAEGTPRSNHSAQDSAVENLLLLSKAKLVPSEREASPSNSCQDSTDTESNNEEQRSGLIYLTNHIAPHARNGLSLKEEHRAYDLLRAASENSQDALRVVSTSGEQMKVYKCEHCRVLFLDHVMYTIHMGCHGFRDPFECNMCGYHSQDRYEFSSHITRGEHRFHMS
T3 sequence (Q96SW2 whole entry): as the sequence (Q96SW2 whole entry) above
T3 sequence (Q16531 whole entry partner): as the sequence (Q16531 whole entry partner) above

Consider `Cc1ncccc1N1CCN(Cc2ccc3c(c2)CN(C2CCC(=O)NC2=O)C3=O)CC1` (stereo not drawn) [Compound C, 3-(5-((4-(2-methylpyridin-3-yl)piperazin-1-yl)methyl)-1-oxoisoindolin-2-yl)piperidine-2,6-dione], for which the “Ymin (%)” value on ePL-tagged Aiolos amounted to 83%; on ePL-tagged GSPT1 it was 89%; at ePL-tagged Ikaros, 92%; on Helios, 86%. Moreover, the DC50 on ePL-tagged Aiolos (Aiolos, DF15 cells, 4 hours, read-out: EC50 (the source's name)) is over 10 µM; at ePL-tagged GSPT1 (GSPT1, DF15 cells, 20 hours, read-out: EC50 (the source's name)) it was over 10 µM; on ePL-tagged Ikaros (Ikaros, DF15 cells, 4 hours, read-out: EC50 (the source's name)), over 10 µM; at Helios (Helios, Jurkat/Helios/HiBit cells, 18 hr, read-out: EC50 (the source's name)), over 10 µM. For the same molecule, in assay [1], the “surface levels of ZNF2_3 Q1F-tagged CAR” value was “could be titrated”.

Values taken from patent US20230095912A1, “Composition and Methods for Selective Degradation of Engineered Proteins” (Celgene Corporation, priority 2021, published 2023).
